Laboratory results as given in patent US20060172990A1, “Antibacterial agents” (priority 2002, published 2006).
In brackets after ≈: the same amount, converted by molar mass.

Columns and labels:
Assay type in all cases: cell-based
S. pneumoniae = assay: MIC by agar plate dilution against clinical isolates of S. pneumoniae; conditions: 3 strains (clinical isolates), Iso-Sensitest agar, 18 to 24 hr, 35° C.
Method: (§1) Minimal Inhibitory concentrations (MIC) of inhibitors against clinical isolates of S. pneumoniae, H. influenzae and M. catarrhalis obtained from the Public Health and Clinical Microbiology Laboratory, Addenbrooke's Hospital, Hills Road, Cambridge CB2 2QW, UK, were determined by a standard agar plate dilution method following recommendations in British Society for Antimicrobial Chemotherapy Working Party. 1991 “A guide to sensitivity testing British Society for Antimicrobial Chemomtherapy, London, United Kingdom”. Briefly Iso-Sensitest agar (pH 7.2: Oxoid, United Kingdom) was employed supplemented with 5% horse blood (Oxoid) and 20 μg of NAD (Sigma) per ml to support growth of fastidious bacteria. The inoculum used was approximately 10^4 colony forming units of each isolate contained in a volume of 1 μl. Plate were incubated 18 to 24 hr in air, -or for fastidious bacteria an atmosphere enriched with 4-6% carbon dioxide at 35° C. The MIC was determined as the lowest concentration of an antimicrobial tested that inhibited growth of the inoculum, disregarding a single persisting colony or faint haze caused by the inoculation.
(§2) The compounds of the Examples were are antibacterially active in the above assays, The following table states the MIC ranges of the tested compounds against 3 strains of S. pneumoniae, 2 strains of H. influenzae and 1 strain of M. catarrhalis.

H. influenzae = assay: MIC by agar plate dilution against clinical isolates of H. influenzae; conditions: Haemophilus influenzae, 2 strains (clinical isolates), Iso-Sensitest agar, 18 to 24 hr, 35° C., read-out: MIC range H. influenzae
Method: as §1, §2

M. catarrhalis = assay: MIC by agar plate dilution against clinical isolate of M. catarrhalis; conditions: Moraxella catarrhalis, 1 strain (clinical isolate), Iso-Sensitest agar, 18 to 24 hr, 35° C.
Method: as §1, §2

Row | SMILES | MIC range S. pneumoniae (S. pneumoniae) [µg/mL] | MIC (H. influenzae) [µg/mL] | MIC (M. catarrhalis) [µg/mL]
1 | CC(C)N(CC(=O)N1CCN(Cc2ccc3c(c2)OCO3)CC1)NC(=O)[C@H](CC1CCCC1)CN(O)C=O [Example 5, N-(2-{N′-[(2R)-(4-Benzo[1,3]dioxol-5-ylmethyl-piperazin-1-yl)-2-oxo-ethyl]-N′-isopropyl-hydrazinocarbonyl}-3-cyclopentylpropyl)-N-hydroxy formamide] | 1 to 4 | > 32 | 1 (≈ 1.88 µM)
2 | CC(C)N(CC(=O)Nc1cccnc1)NC(=O)[C@H](CC1CCCC1)CN(O)C=O [Example 6] | – | 32 (≈ 78.9 µM) | 2 (≈ 4.93 µM)
3 | CC(C)N(CC(=O)Nc1nccs1)NC(=O)[C@H](CC1CCCC1)CN(O)C=O [Example 7, 2-{N′-[(2R)-Cyclopentylmethyl-3-(formyl-hydroxy-amino)-propionyl]-N-isopropyl-hydrazino}-N-thiazol-2-yl-acetamide] | 16 to 32 | 16 to 32 (≈ 38.9 to 77.8 µM) | 2 (≈ 4.86 µM)
4 | Cc1csc(NC(=O)CN(NC(=O)[C@H](CC2CCCC2)CN(O)C=O)C(C)C)n1 [Example 9, 2-{N′-[(2R)-Cyclopentylmethyl-3-(formyl-hydroxy-amino)-propionyl]-N-isopropyl-hydrazino}-N-(4-methyl-thiazol-2-yl)-acetamide] | 16 to 32 | > 32 | 2 (≈ 4.7 µM)
5 | CC(C)N(CC(=O)Nc1nc2ccccc2s1)NC(=O)[C@H](CC1CCCC1)CN(O)C=O [Example 10, N-Benzothiazol-2-yl-2-{N′-[(2R)-cyclopentylmethyl-3-(formyl-hydroxy-amino)-propionyl]-N-isopropyl-hydrazino)acetamide] | 1 to 4 | > 32 | 2 (≈ 4.33 µM)
6 | Cc1coc(NC(=O)CN(NC(=O)[C@H](CC2CCCC2)CN(O)C=O)C(C)C)n1 [Example 8, 2-{N′-[(2R)-Cyclopentylmethyl-3-(formyl-hydroxy-amino)-propionyl]-N-isopropyl-hydrazino}-N-(4-methyl-oxazol-2-yl)-acetamide] | 8 to 16 | – | 2 (≈ 4.88 µM)

These reach a lower MIC (M. catarrhalis). Values come first.

Row | MIC range S. pneumoniae (S. pneumoniae) [µg/mL] | MIC (H. influenzae) [µg/mL] | MIC (M. catarrhalis) [µg/mL] | SMILES
7 | – | 0.5 to 1 (≈ 1.4 to 2.81 µM) | 0.5 (≈ 1.4 µM) | CC(C)N(CC(=O)N(C)C)NC(=O)[C@H](CC1CCCC1)CN(O)C=O [Example 3, 2-{N′-[(2R)-Cyclopentylmethyl-3-(formyl-hydroxy-amino)-propionyl]-N-isopropyl-hydrazino}-N,N-dimethyl-acetamide]
8 | 1 to 2 | 32 (≈ 63.4 µM) | 0.5 (≈ 0.991 µM) | COc1cc2c(cc1OC)CN(C(=O)CN(NC(=O)[C@H](CC1CCCC1)CN(O)C=O)C(C)C)CC2 [Example 4, N-{3-Cyclopentyl-(2R)-[N′-[2-(6,7-dimethoxy-3,4-dihydro-1H-isoquinolin-2-yl)-2-oxo-ethyl]-N′-isopropyl-hydrazinocarbonyl}-propyl)-N-hydroxy-formamide]
9 | 4 to 16 | 8 (≈ 20.9 µM) | 0.5 (≈ 1.31 µM) | CC(C)N(CC(=O)N1CCCC1)NC(=O)[C@H](CC1CCCC1)CN(O)C=O [Example 2]
